Data: patent US9910044B2, “Methods for identifying arthropod repellents based on modulation of specific ionotropic receptors, and compounds and compositions identified by such methods” (The Regents of the University of California, priority 2013, dated 2018)
Like-named read-outs stand apart in the source and are kept apart here.

How the values were obtained:
Drosophila [1] = assay: Drosophila olfactory avoidance assay, 2-choice trap; type: in vivo, Drosophila melanogaster
Experimental: For each trial, three- to six-day old flies (10 males and 10 females) were starved for 18 hours. Flies were transferred to a cylindrical 38.1 mm D×84.1 mm H chamber containing two traps each fashioned from an upturned 1.5 ml microcentrifuge tube with 2 mm removed from the tapered end. A pipette tip (1000 μl), was cut 2.5 cm from narrow end and 0.5 cm from top and inserted into the bottom of the inverted microcentrifuge tube. A 15 mm×16 mm #1 Whatmann filter paper was inserted in between the pipette tip and tip of microcentrifuge tube in a manner that entering flies cannot make physical contact with it. With reference to FIG. 2A, for the 1-choice test, a 50 μl sample of test odorant (50% DEET in DMSO) was applied to filter paper and 125 μl of 10% apple cider vinegar (ACV) is applied to the upturned lid of the microcentrifuge tube as attractant. With reference again to FIG. 2A, for the 2-choice test, two 10% ACV lured traps were placed in the cylinder, one with DMSO as the solvent (right) and another with DEET (left).

[2] = system: mammalian cation channels; conditions: cited from earlier work
[3] = biological target: human acetylcholinesterase (Homo sapiens, UniProt P22303); conditions: Corbel et al., BMC Biol, 7, 2009; cited from earlier work
Drosophila [4] = type: in vivo, Drosophila melanogaster

Sequence of human acetylcholinesterase (P22303 32-614): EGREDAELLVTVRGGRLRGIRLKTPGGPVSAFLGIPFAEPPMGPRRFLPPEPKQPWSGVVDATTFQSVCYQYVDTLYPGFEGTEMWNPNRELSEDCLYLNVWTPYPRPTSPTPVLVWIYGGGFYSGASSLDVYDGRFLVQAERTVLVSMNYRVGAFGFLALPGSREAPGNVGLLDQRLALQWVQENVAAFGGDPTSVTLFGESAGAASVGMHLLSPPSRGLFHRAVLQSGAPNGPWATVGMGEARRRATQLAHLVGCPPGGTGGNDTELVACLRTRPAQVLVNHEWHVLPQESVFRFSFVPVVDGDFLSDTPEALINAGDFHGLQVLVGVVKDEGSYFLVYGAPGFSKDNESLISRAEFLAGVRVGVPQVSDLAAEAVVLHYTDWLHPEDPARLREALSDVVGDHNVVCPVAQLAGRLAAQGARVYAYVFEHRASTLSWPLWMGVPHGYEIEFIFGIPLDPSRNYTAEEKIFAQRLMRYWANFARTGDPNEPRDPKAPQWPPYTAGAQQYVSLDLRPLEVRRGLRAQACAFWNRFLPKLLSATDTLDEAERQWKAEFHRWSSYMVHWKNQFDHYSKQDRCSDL

CCN(CC)C(=O)c1cccc(C)c1 [DEET, N,N-Diethyl-m-toluamide]
avoidance response to volatile DEET (Drosophila [1]; Ir40a neuron-silenced flies (Ir40a-promoter-Ga14, UAS-kir), 10% ACV lure): avoidance was observed to be lost | DEET avoidance (Drosophila [1]; Ir40a-RNAi flies (Ir40a-G4 with UAS-Ir40a-RNAi) compared to control flies, 10% ACV lure): loss of DEET avoidance | olfactory DEET avoidance (Drosophila [1]; Ir93a-/- and Ir25a receptor mutant flies, FIG. 6B): found to be involved in olfactory DEET avoidance | olfactory avoidance to DEET (Drosophila [1]; two DGRP lines with mutations in Ir40a (RAL-158, RAL-272), DEET 50% in DMSO, 10% ACV lure): nearly abolished | avoidance response to volatile DEET (Drosophila [1]; two control lines of the Ir40a-promoter-Ga14/UAS-kir experiment, 10% ACV lure): robust and reproducible avoidance response | avoidance response to volatile DEET (Drosophila [1]; wild-type Canton-S, DEET 50% in DMSO, 10% ACV lure): robust and reproducible avoidance response | inhibition of mammalian cation channels [2]: inhibit | inhibition of human acetylcholinesterase [3]: inhibit | avoidance of DEET-treated trap (Drosophila [4]; Ir25a neuron-TNTG flies (Ir25a-Ga14/UAS-TNTG), 10% ACV lure): substantially decreased | avoidance of DEET-treated trap (Drosophila [4]; Ir40a neuron-TNTG flies (Ir40a-Ga14/UAS-TNTG), versus controls, 10% ACV lure): substantially decreased | avoidance of DEET-treated trap (Drosophila [4]; control flies Ir25a-Ga14/UAS-IMPTV, 10% ACV lure): observed to avoid DEET | avoidance of DEET-treated trap (Drosophila [4]; control flies Ir40a-G4/+ and UAS-TNTG/+, 10% ACV lure): observed to avoid DEET | avoidance of DEET-treated trap (Drosophila [4]; in vivo): observed to avoid DEET | olfactory avoidance to DEET (Drosophila [4]; in vivo): nearly abolished
